Values quoted from earlier work in US20200352905A1, “6-(2,4-DICHLOROPHENYL)-5-[4-[(3S)-1-(3-FLUOROPROPYL)PYRROLIDIN-3-YL]OXYPHENYL]-8,9-DIHYDRO-7H-BENZO[7]ANNULENE-2-CARBOXYLIC ACID FOR USE IN METASTATIC OR ADVANCED BREAST CANCER PATIENTS” (SANOFI, priority 2019, published 2020).
Read-outs that look alike come from different tables or passages of the source.

Columns and labels:
[1] = tested on: CYP3A; settings: cited from earlier work
[2] = tested on: CYP3A; settings: cited from earlier work; remark: listed apart in the source
[3] = tested on: CYP2C8; settings: cited from earlier work
[4] = tested on: advanced breast cancer; settings: prior CDK4/6, mTOR, fulvestrant not allowed, cited from earlier work
[5] = moderate CYP3A inhibitors, victim midazolam (oral)
[6] = strong CYP3A inhibitors, victim midazolam (oral)
[7] = victim Sildenafil, 62.5-125 mg BID 8 weeks
[8] = victim Midazolam, 1000 mg QD (14 days)
[9] = victim Midazolam, 1000 mg BID (14 days)
[10] = victim Triazolam, 200-400 mg QD 28 days
[11] = victim Nifedipine, 500 mg 4 times daily 5 days
[12] = victim Verapamil, 100 mg QD 21 days
[13] = victim Midazolam, 140 mg QD (10 days)
[14] = victim Indinavir, 500 mg TID 14 days
[15] = EFECT trial 2003-2005, fulvestrant single agent arm, n=270, setting 2L+
[16] = PALOMA-3 trial 2013-2014, fulvestrant single agent arm, n=138, setting 2L+
[17] = SANDPIPER trial 2015-2017, fulvestrant single agent arm, n=134, setting 2L+
[18] = SoFEA trial 2004-2010, fulvestrant single agent arm, n=178, setting 2L+

COCCc1ccc(Cl)c(CN(C(=O)[C@H]2CNCC[C@@H]2c2ccc(OCCOc3c(Cl)cc(C)cc3Cl)nc2)C2CC2)c1 [ACT-178882]
AUC Ratio [1, 5]: 2.19

CC(C)c1cc(C(C)C)c(CC(=O)NS(=O)(=O)Oc2c(C(C)C)cccc2C(C)C)c(C(C)C)c1 [Avasimibe]
% of AUC decrease ([2]; victim Midazolam, 750 mg/day (7 days)): 93.5%

CC(C)(C)NC(=O)N[C@H](C(=O)N1C[C@H]2[C@@H]([C@H]1C(=O)NC(CC1CCC1)C(=O)C(N)=O)C2(C)C)C(C)(C)C (stereo partly drawn) [Boceprevir]
AUC Ratio [1, 6]: 5.05

COc1ccccc1Oc1c(NS(=O)(=O)c2ccc(C(C)(C)C)cc2)nc(-c2ncccn2)nc1OCCO [Bosentan]
% of AUC decrease [2, 7]: 69%
% oral CL increase [2, 7]: 239.8%

CC[C@H]1OC(=O)[C@H](C)[C@@H](O[C@H]2C[C@@](C)(OC)[C@@H](O)[C@H](C)O2)[C@H](C)[C@@H](O[C@@H]2O[C@H](C)C[C@H](N(C)C)[C@H]2O)[C@](C)(OC)C[C@@H](C)C(=O)[C@H](C)[C@@H](O)[C@]1(C)O [Clarithromycin]
AUC Ratio [1, 6]: 8.39

Cc1nc2c([nH]1)-c1ccccc1N(C(=O)c1ccc(NC(=O)c3ccccc3-c3ccccc3)cc1)CC2 [Conivaptan]
AUC Ratio [1, 6]: 5.76

CCCCc1oc2ccc(NS(C)(=O)=O)cc2c1C(=O)c1ccc(OCCCN(CCCC)CCCC)cc1 [Dronedarone]
AUC Ratio ([1]; moderate CYP3A inhibitors, victim simvastatin): 3.66

O=C1Nc2ccc(Cl)cc2[C@@](C#CC2CC2)(C(F)(F)F)O1 [Efavirenz]
% of AUC decrease ([2]; victim Simvastatin acid, 600 mg QD 28 days): 60.4%

CNC(=O)c1ccc(N2C(=S)N(c3ccc(C#N)c(C(F)(F)F)c3)C(=O)C2(C)C)cc1F [Enzalutamide]
% of AUC decrease ([2]; victim Midazolam, 160 mg QD (85 ± 3 days)): 85.9%

Cc1cc(C#N)cc(C)c1Oc1nc(Nc2ccc(C#N)cc2)nc(N)c1Br [Etravirine]
% of AUC decrease ([2]; victim Sildenafil, 800 mg BID 13.5 days): 56.7%

OC(Cn1cncn1)(Cn1cncn1)c1ccc(F)cc1F [Fluconazole]
AUC Ratio [1, 5]: 4.93

O=c1c(-c2ccc(O)cc2)coc2cc(O)cc(O)c12 [Genistein]
% of AUC decrease [2, 8]: 13.7%
% oral CL increase [2, 8]: 136.9%

CC[C@H](Nc1ncnc2[nH]cnc12)c1nc2cccc(F)c2c(=O)n1-c1ccccc1 [Idelalisib]
AUC Ratio [1, 6]: 5.15

CCC(C)n1ncn(-c2ccc(N3CCN(c4ccc(OCC5COC(Cn6cncn6)(c6ccc(Cl)cc6Cl)O5)cc4)CC3)cc2)c1=O (stereo not drawn) [Itraconazole]
AUC Ratio [1, 6]: 10.80

CC(=O)N1CCN(c2ccc(OCC3COC(Cn4ccnc4)(c4ccc(Cl)cc4Cl)O3)cc2)CC1 (stereo not drawn) [Ketoconazole]
AUC Ratio ([1]; in vivo, po): 15.90

CN[C@@H](C)C(=O)N[C@H](C(=O)N1CCC[C@H]1c1nc(C(=O)c2ccc(F)cc2)cs1)C1CCCCC1 [LCL 161]
AUC Ratio [1, 6]: 8.80

CCc1nn(CCO)c(CC)c1Oc1cc(C#N)cc(C#N)c1 [Lersivirine]
% of AUC decrease [2, 9]: 51.4%
% oral CL increase [2, 9]: 105.5%

COCC(=O)O[C@]1(CCN(C)CCCc2nc3ccccc3[nH]2)CCc2cc(F)ccc2[C@@H]1C(C)C [Mibefradil]
AUC Ratio [1, 6]: 8.86

Clc1ccc(C(c2ccccc2Cl)C(Cl)Cl)cc1 (stereo not drawn) [Mitotane]
% of AUC decrease ([2]; victim Midazolam, Maximum of 3.5 g TID (chronic therapy)): 94.5%

NC(=O)C[S+]([O-])C(c1ccccc1)c1ccccc1 (stereo not drawn) [Modafinil]
% of AUC decrease [2, 10]: 57.6%
% oral CL increase [2, 10]: 35.7%

CCOc1ccc2ccccc2c1C(=O)N[C@@H]1C(=O)N2[C@@H]1SC(C)(C)[C@@H]2C(=O)O [Naficillin]
% of AUC decrease [2, 11]: 62.6%
% oral CL increase [2, 11]: 145.1%

CCc1nn(CCCN2CCN(c3cccc(Cl)c3)CC2)c(=O)n1CCOc1ccccc1 [Nefazodone]
AUC Ratio [1, 6]: 5.44

Cc1c(O)cccc1C(=O)N[C@@H](CSc1ccccc1)[C@H](O)CN1C[C@H]2CCCC[C@H]2C[C@H]1C(=O)NC(C)(C)C [Nelfinavir]
AUC Ratio [1, 6]: 5.29

CCC1(c2ccccc2)C(=O)NC(=O)NC1=O [Phenobarbital]
% of AUC decrease [2, 12]: 76.6%
% oral CL increase [2, 12]: 400.9%

O=C1NC(=O)C(c2ccccc2)(c2ccccc2)N1 [Phenytoin]
% of AUC decrease ([2]; victim Nisoldipine, 200-450 mg/day (chronic treatment)): 89.5%

CC[C@@H]([C@H](C)O)n1ncn(-c2ccc(N3CCN(c4ccc(OC[C@@H]5CO[C@@](Cn6cncn6)(c6ccc(F)cc6F)C5)cc4)CC3)cc2)c1=O [Posaconazole]
AUC Ratio [1, 6]: 6.23

CO[C@H]1/C=C/O[C@@]2(C)Oc3c(C)c(O)c4c(c3C2=O)C2=NC3(CCN(CC(C)C)CC3)NC2=C(NC(=O)/C(C)=C\C=C\[C@H](C)[C@H](O)[C@@H](C)[C@@H](O)[C@@H](C)[C@H](OC(C)=O)[C@@H]1C)C4=O [Rifabutin]
% oral CL increase ([2]; victim Delavirdine, 300 mg QD 14 days): 458.0%

CO[C@H]1/C=C/O[C@@]2(C)Oc3c(C)c(O)c4c(O)c(c(/C=N/N5CCN(C)CC5)c(O)c4c3C2=O)NC(=O)/C(C)=C\C=C\[C@H](C)[C@H](O)[C@@H](C)[C@@H](O)[C@@H](C)[C@H](OC(C)=O)[C@@H]1C [Rifampin]
Max % of AUC decrease or CL increase ([3]; substrate pioglitazone, 600 mg QD (6 days)): 53.8%
Max % of AUC decrease or CL increase ([3]; substrate repaglinide, 600 mg QD (7 days)): 79.6%
Max % of AUC decrease or CL increase ([3]; substrate rosiglitazone, 600 mg QD (6 days)): 66.4%

CC(C)(C)NC(=O)[C@@H]1C[C@@H]2CCCC[C@@H]2CN1C[C@@H](O)[C@H](Cc1ccccc1)NC(=O)[C@H](CC(N)=O)NC(=O)c1ccc2ccccc2n1 [Saquinavir]
AUC Ratio [1, 6]: 5.18

CC(C)[C@H](O)C(=O)N[C@@H](C)C(=O)N[C@@H]1C(=O)N(C)CCc2ccccc21 [Semagacestat]
% of AUC decrease [2, 13]: 76.4%
% oral CL increase [2, 13]: 324.6%

COc1ccc2c(c1)N(C(=O)OC(C)C)[C@@H](CSC)C(=S)N2 [Talviraline]
% of AUC decrease [2, 14]: 61.7%
% oral CL increase [2, 14]: 181.2%

CCC[C@H](NC(=O)[C@@H]1[C@H]2CCC[C@H]2CN1C(=O)[C@@H](NC(=O)[C@@H](NC(=O)c1cnccn1)C1CCCCC1)C(C)(C)C)C(=O)C(=O)NC1CC1 [Telaprevir]
AUC Ratio [1, 6]: 13.5

CC[C@H]1OC(=O)[C@H](C)C(=O)[C@H](C)[C@@H](O[C@@H]2O[C@H](C)C[C@H](N(C)C)[C@H]2O)[C@](C)(OC)C[C@@H](C)C(=O)[C@H](C)[C@H]2N(CCCCn3cnc(-c4cccnc4)c3)C(=O)O[C@]12C [Telithromycin]
AUC Ratio [1, 6]: 6.2

CC(C)CN(C[C@@H](O)[C@H](Cc1ccccc1)NC(=O)O[C@H]1CCOC1)S(=O)(=O)c1ccc(N)cc1 [amprenavir]
AUC Ratio ([1]; in vivo): 2.93

C[C@@H](O[C@H]1OCCN(Cc2n[nH]c(=O)[nH]2)[C@H]1c1ccc(F)cc1)c1cc(C(F)(F)F)cc(C(F)(F)F)c1 [aprepitant]
AUC Ratio [1, 5]: 3.29

COC(=O)N[C@H](C(=O)N[C@@H](Cc1ccccc1)[C@@H](O)CN(Cc1ccc(-c2ccccn2)cc1)NC(=O)[C@@H](NC(=O)OC)C(C)(C)C)C(C)(C)C [atazanavir]
AUC Ratio ([1]; moderate CYP3A inhibitors, victim maraviroc): 3.57

CC(=O)N1CCN([C@H]2CCN(C(=O)N(C)[C@H](C)c3cc(C(F)(F)F)cc(C(F)(F)F)c3)[C@@H](c3ccc(F)cc3C)C2)CC1 [casopitant]
AUC Ratio [1, 5]: 3.13

C[C@]12CC[C@@H]3c4ccc(O)cc4C[C@@H](CCCCCCCCC[S+]([O-])CCCC(F)(F)C(F)(F)F)[C@H]3[C@@H]1CC[C@@H]2O (stereo partly drawn) [fulvestrant]
CBR [4, 15]: 32.2%
ORR [4, 15]: 7.4%
CBR [4, 16]: 36%
ORR [4, 16]: 11%
CBR [4, 17]: 37.3%
ORR [4, 17]: 11.9%
CBR [4, 18]: 31%
ORR [4, 18]: 8%

C[C@@H](c1nc(-c2ccc(C#N)cc2)cs1)[C@](O)(Cn1cncn1)c1cc(F)ccc1F [isavuconazole]
AUC Ratio [1, 5]: 2.03

N#Cc1ccnc(N2C(=O)CC[C@H]2C(=O)N(c2cncc(F)c2)[C@H](C(=O)NC2CC(F)(F)C2)c2ccccc2Cl)c1 [ivosidenib]
Max % of AUC decrease or CL increase ([3]; substrate repaglinide, 1200 mg QD (19 days), PBPK): 59.0 (PBPK) %

Cc1ccccc1-c1cc(N2CCN(C)CC2)ncc1N(C)C(=O)C(C)(C)c1cc(C(F)(F)F)cc(C(F)(F)F)c1 [netupitant]
AUC Ratio [1, 5]: 2.44

Cc1cn(-c2cc(NC(=O)c3ccc(C)c(Nc4nccc(-c5cccnc5)n4)c3)cc(C(F)(F)F)c2)cn1 [nilotinib]
AUC Ratio [1, 5]: 2.40

CCC1C(C)=NN=C(c2ccc(OC)c(OC)c2)c2cc(OC)c(OC)cc21 (stereo not drawn) [tofisopam]
AUC Ratio [1, 5]: 2.36
